Experimental data as given in US4975418A, “Therapeutically active compositions of pseudo-peptide of glutamyl-aspartic acid” (Centre National de la Recherche Scientific (CNRS), priority 1986, dated 1990).

Test system: SWISS mouse
Test: convulsive crises induced by intraperitoneal pentylenetetrazole in the SWISS mouse
Format: in vivo
Conditions: given after pentylenetetrazole about 85 mg/kg i.p.
Experimental: During the first stages of the preparation and development of epileptic drugs it is necessary to generate experimental convulsive crises in an animal. The experimental convulsive crises make it possible to identify anticonvulsants, the anti-epileptic properties of which will be subsequently verified.
That is the reason why convulsive crises are induced in the SWISS mouse by the intraperitoneal injection of pentylenetetrazole at a dose of about 85 mg/kg.
Pentylenetetrazole is a bulbar excitant which, at this dose, causes convulsive crises in the mouse and the rabbit in a classical fashion with several well-characterized stages.
The subsequent intraperitoneal administration of the substance of formula I according to the invention brought about a suppression of these crises under the following conditions:
The subsequent intraperitoneal administration of N-γ-D-glutamyl-D-aspartic was also carried out and brought about the suppression of crises under the following conditions: […]

[1] = dose 285 nmol/kg intraperitoneal

With `N[C@@H](CCC(=O)N[C@@H](CC(=O)O)C(=O)O)C(=O)O` [formula I, N-γ-L-glutamyl-L-aspartate] as the compound, how does the “suppression of crises, % of the animals” value (dose 142.5 nmol/kg intraperitoneal) read?
The value was 50%.

And the “suppression of crises, % of the animals” value [1]?
The value was 50%.

What about the “suppression of crises, % of the animals” value (dose 570 nmol/kg intraperitoneal) of the same compound?
Its value is 70%.

For `N[C@H](CCC(=O)N[C@H](CC(=O)O)C(=O)O)C(=O)O` [N-γ-D-glutamyl-D-aspartic, N-γ-D-glutamyl-D-aspartic acid], which “suppression of crises, % of the animals” value (dose 71 nmol/kg intraperitoneal) is on record?
The value was 40%.

What about the “suppression of crises, % of the animals” value [1] of the same compound?
The value was 60%.
